Laboratory results from article PMC12030253, “New Temporin A Analogues Modified in Positions 1 and 10—Synthesis and Biological Studies” (Pharmaceutics, 2025).
Converted amounts (≈) assume the structure as drawn. “And” between values parts separate entries of the source, which are not always exact repeats. Identical values can stand only once. Like-named read-outs stand apart in the source and are kept apart here. Square brackets hold non-standard residues; d marks the D form. Ends that are not written are not given here. Peptide text beside a SMILES is read from it. Phe(4-F) = N[C@@H](Cc1ccc(F)cc1)C(=O)O

Tests used:
[1] = test system: Bacillus subtilis NBIMCC 3562; design: method as in PMID 38931840; conditions: 30 µg/disk, positive control with DTA; cited from earlier work
[2] = test system: Bacillus subtilis NBIMCC 3562; type: cell-based; conditions: 30 µg/disk, positive control on the plate of the peptide
Experimental: (§1) In order to evaluate the antimicrobial activity, the parent peptide Temporin A and newly synthesized analogues were tested against model strains Escherichia coli NBIMCC 8785, Pseudomonas aeruginosa NBIMCC 3700, Bacillus subtilis NBIMCC 3562, Arthrobacter oxydans NBIMCC 9333, and Candida albicans NBIMCC 74. The strains were purchased from the National Bank for Industrial Microorganisms and Cell Cultures (NBIMCC, Sofia, Bulgaria). They were cultured as follows: • E. coli 8785 in Luria–Bertani (LB, HiMedia, Mumbai, India) agar medium; • B. subtilis 3562 in nutrient broth (NB, HiMedia, Mumbai, India) agar medium; • P. aeruginosa 3700 and A. oxydans 9333 in Meat Peptone agar (MPA) medium; • C. albicans 74 in Yeast Mold (YM) agar medium.
(§2) The cultivation was performed in an incubator shaker ES-20/60 (Biosan, Riga, Latvia), set for B. subtilis 3562, A. oxydans 9333, and C. albicans 74 at 30 °C, and for E. coli 8785 and P. aeruginosa 3700 at 37 °C, for 24 h with 120 rpm. The microbial cultures were then brought to a 0.5 McFarland turbidity using a Grant-bio DEN-1B densitometer (Grant Instruments, Nether Alderley, United Kingdom).
(§3) The disk diffusion method was employed as an additional technique in order to determine the percentage of inhibition of the synthesized peptides compared to a chosen antibiotic, used as a positive control. The antibiotics used were gentamicin (10 µg/disk), chloramphenicol (30 µg/disk), and itraconazole (10 µg/disk). In total, 100 μL from each microbial culture was spread on LB/NB/MPA/YM agar plates. The plates were then incubated at the appropriate temperature for a period of 30 min intended for the penetration of the culture into the agar. […] The antimicrobial activity was assessed by measuring the diameter of the inhibition zones in mm. […] In addition, the percentage of inhibition was calculated as the correlation between the inhibition zone of the peptide (measured in mm) over the inhibition zone of the antibiotic (measured in mm) multiplied by 100.

MCF-12F cells = type: cell-based, human; conditions: for IC50: 72 h
Experimental: (§4) Mouse embryonic fibroblasts (BALB 3T3 clone A31), human breast epithelial cells (MCF-12F), luminal A breast cancer (MCF-7), and basal B-type breast cancer (MDA-MB-231) were used in in vitro experiments. Cell cultures were purchased from the American Type Cultures Collection (ATCC, Manassas, VA, USA). Cells were cultured in a growth medium (DMEM-4.5 g/L glucose), 10% FBS, and antibiotics (Sigma-Aldrich, Schnelldorf, Germany). Cells were incubated at 5% CO2, 37 °C, and 95% humidity. Plastic flasks (75 cm^2) were used for the cell culture (Biologix, Lenexa, KS, USA).
The antiproliferative activity of the peptide analogues was determined by an MTT assay. Normal epithelial cells (MCF-12F) and tumor cell lines (MCF-7 and MDA-MB-231) were used in the in vitro experiments. Cells were plated at 1 × 10^3 cells/100 µL/well in 96-well microplates. After 24 h of incubation in a thermostat under standard conditions, the cells were treated with test compounds for 72 h. The optical density of the formazan was measured at λ = 540 nm using a microplate reader. Antiproliferative activities were expressed as IC50 values. The statistical analysis of the results was performed using one-way ANOVA, followed by Bonferroni’s post hoc test.

MCF-7 cells = type: cell-based, human; conditions: 72 h
Experimental: as §4
(§5) The antiproliferative activity of the peptide analogues was determined by an MTT assay. Normal epithelial cells (MCF-12F) and tumor cell lines (MCF-7 and MDA-MB-231) were used in the in vitro experiments. Cells were plated at 1 × 10^3 cells/100 µL/well in 96-well microplates. […] The optical density of the formazan was measured at λ = 540 nm using a microplate reader. Antiproliferative activities were expressed as IC50 values. The statistical analysis of the results was performed using one-way ANOVA, followed by Bonferroni’s post hoc test.

MDA-MB-231 cells = type: cell-based, human; conditions: 72 h
Experimental: as §4, §5

BALB 3T3 cells = test: in vitro; type: cell-based, Mouse
Experimental: as §4
(§6) The safety testing was performed according to the OECD Guidelines for the Testing of Chemicals, Section 4, Test No. 432. Mouse embryonic fibroblasts (BALB 3T3, clone A31) were used to perform the in vitro cytotoxicity and phototoxicity tests. Cells were plated at 1 × 10^4 cells per well in 96-well cell culture plates. The cells were incubated in a thermostat for 24 h before the test peptide analogues were added. […] Working concentrations (4–1000 µM) of peptides were obtained by diluting the stock solution with a culture medium. The phototoxicity test was performed using 96-well microplates. The microplates were irradiated with a dose of 2.4 J/cm^2 using a solar light simulator Helios-iO (SERIC Ltd., Tokyo, Japan). After treatment with a neutral red (NR) medium (NR dissolved in culture medium, 34 µg/mL), washing, and application of the NR Desorb solution (freshly prepared 49 parts water + 50 parts ethanol + 1 part acetic acid), the absorption was measured on a microplate reader at a wavelength of 540 nm. Cytotoxicity was expressed as CC50 values.

in vitro = type: cell-based, Mouse; conditions: mouse
Experimental: as §4, §6

[3] = test system: Bacillus subtilis NBIMCC 3562; type: cell-based
Experimental: as §1, §2
(§7) The broth dilution method was employed to estimate the MIC of the peptides. In total, 10 mg/mL peptide stock solutions in 10% EtOH/H2O were prepared. Microbial culture in the corresponding media and peptide solutions in a concentration range from 0 to 320 µg/mL (concentration levels: 0, 10, 20, 40, 80, 160, and 320 µg/mL) were placed in 96-well U-shaped-bottom polystyrene plates (Deltalab S.L., Barcelona, Spain). In addition, 10% EtOH/H2O control, diluted in the nutrient medium, was added in separate wells. Furthermore, the microplates were incubated under aerobic conditions at the desired temperature for 24 h. […] The absorbance was measured at 630 nm (microplate reader PKL PPC 142, Italy). In total, 10 μL solution with concentrations greater than or equal to the MIC value was placed on the corresponding solid nutrient medium in order to evaluate a potential minimum bactericidal concentration (MBC) and minimal fungicidal concentration (MFC). Furthermore, the Petri dishes were incubated for 24 h at either 30 or 37 °C. Every experiment was carried out three times.

[4] = test system: Arthrobacter oxydans NBIMCC 9333; type: cell-based; conditions: 24 h
Experimental: as §1, §2, §7

[5] = test system: Pseudomonas aeruginosa NBIMCC 3700; type: cell-based
Experimental: as §1, §2, §7

[6] = test system: Escherichia coli NBIMCC 8785; design: method as in PMID 38931840; conditions: 10 µg/disk, positive control with DTA; cited from earlier work
[7] = test system: Arthrobacter oxydans NBIMCC 9333; design: method as in PMID 38931840; conditions: 10 µg/disk, positive control with DTA; cited from earlier work
[8] = test system: Escherichia coli NBIMCC 8785; type: cell-based; conditions: 10 µg/disk, positive control on the plate of the peptide
Experimental: as §1, §2, §3

[9] = test system: Pseudomonas aeruginosa NBIMCC 3700; type: cell-based; conditions: 10 µg/disk, positive control on the plate of the peptide
Experimental: as §1, §2, §3

[10] = test system: Pseudomonas aeruginosa NBIMCC 3700; design: method as in PMID 38931840; conditions: 10 µg/disk, positive control with DTA; cited from earlier work
[11] = test system: Candida albicans NBIMCC 74; test: Broth dilution MIC, C. albicans; type: cell-based; design: key: NI—no inhibition observed; conditions: 0-320 µg/mL, 24 h
Experimental: as §1, §2
(§8) The broth dilution method was employed to estimate the MIC of the peptides. In total, 10 mg/mL peptide stock solutions in 10% EtOH/H2O were prepared. […] The absorbance was measured at 630 nm (microplate reader PKL PPC 142, Italy). […]

[12] = test system: Escherichia coli NBIMCC 8785; test: Broth dilution MIC, E. coli; type: cell-based; design: key: NI—no inhibition observed; conditions: 0-320 µg/mL, 24 h
Experimental: as §1, §2, §8

[13] = broth dilution, 0-320 µg/mL, 24 h

| Compound | IC50 (MCF-12F cells) [µM] | IC50 (MCF-7 cells) [µM] | IC50 (MDA-MB-231 cells) [µM] | PIF (Photo-Irritation Factor) (BALB 3T3 cells) | CC50 (in vitro; Mean CC50 ± SD +Irr) [µM] | CC50 (in vitro; Mean CC50 ± SD −Irr) [µM] | MIC B. subtilis 3562 ([3]; NBIMCC 3562, 24 h) [µg/mL] | MIC A. oxydans 9333 [4] [µg/mL] | MIC P. aeruginosa 3700 ([5]; NBIMCC 3700, 24 h) [µg/mL] | MIC C. albicans 74 [11] | MIC E. coli 8785 [12] | further results |
| --- | --- | --- | --- | --- | --- | --- | --- | --- | --- | --- | --- | --- |
| O=C(N[C@H](CO)[C@H](O)c1ccc([N+](=O)[O-])cc1)C(Cl)Cl [Chloramphenicol, chloramphenicol] |  |  |  |  |  |  |  |  |  |  |  | Inhibition zone B. subtilis 3562, antibiotic control [1]: 26 mm; Inhibition zone B. subtilis 3562, antibiotic control [2]: 24 mm and 27 mm and 28 mm |
| CC[C@H](C)[C@H](NC(=O)CNC(=O)[C@H](CO)NC(=O)[C@H](CC(C)C)NC(=O)[C@@H](NC(=O)[C@H](CCCNC(=N)N)NC(=O)CNC(=O)[C@@H](NC(=O)[C@H](CC(C)C)NC(=O)[C@@H]1CCCN1C(=O)[C@H](CC(C)C)NC(=O)[C@@H](N)Cc1ccc(F)cc1)[C@@H](C)CC)C(C)C)C(=O)N[C@@H](CC(C)C)C(N)=O [DT4F, Phe(4F)-LPLIGRVLSGILNH2] (H-[Phe(4-F)]LPLIGRVLSGIL-NH2) | 41.8 ± 1.64 | 20.3 ± 0.6 | 32 ± 1.43 | 1.4 | 40 ± 0.78 | 55.4 ± 4.64 | 80 (≈ 56.5 µM) | 160 (≈ 113 µM) | 80 (≈ 56.5 µM) |  |  |  |
| CNC(C)C1CCC(N)C(OC2C(N)CC(N)C(OC3OCC(C)(O)C(NC)C3O)C2O)O1 (centres unmarked) [Gentamicin, gentamicin] |  |  |  |  |  |  |  |  |  |  |  | Inhibition zone E. coli 8785, antibiotic control [6]: 18 mm; Inhibition zone A. oxydans 9333, antibiotic control [7]: 18 mm; Inhibition zone E. coli 8785, antibiotic control [8]: 17.5 mm and 16.5 mm and 17 mm; Inhibition zone P. aeruginosa 3700, antibiotic control [9]: 17 mm and 18 mm and 16 mm; Inhibition zone P. aeruginosa 3700, antibiotic control [10]: 17 mm |
| FLPLIGRVLTGIL-NH2 [DTThr, FLPLIGRVL-T-GILNH2] | 165 ± 2.21 | 98.6 ± 1.19 | 136 ± 3.61 | 1.0 | 188 ± 3.55 | 183 ± 2.91 | 160 | 320 | 320 |  |  |  |
| FLPLIGRVLYGIL-NH2 [DTTyr10, FLPLIGRVL-Y-GILNH2] | 251 ± 11.8 | 64.5 ± 3.93 | 328.5 ± 2.62 |  | > 1000 | > 1000 |  |  |  | NI ** | NI ** | Antiproliferative activity in MCF-12F at a single concentration (MCF-12F cells; at 64.51 µM, non-tumorigenic cells): no antiproliferative activity was observed; MIC B. subtilis 3562 [3, 13]: 320 µg/mL; MIC A. oxydans 9333 ([4]; broth dilution, 0-320 µg/mL): 320 µg/mL; MIC P. aeruginosa 3700 [5, 13]: 320 µg/mL |
| YLPLIGRVLSGIL-NH2 [DTTyr1, Y-LPLIGRVLSGILNH2] | 318 ± 9.79 | 216 ± 10.3 | 334 ± 3.72 | 1.0 | 671 ± 12.2 | 669 ± 13.4 | 160 | 320 | 320 | NI ** | NI ** |  |
